This assay concerns P388 leukemia ip, CD2F1 mice, survival T/C. The experiment in a line: NCI In Vivo Anticancer Drug Screen. Data for tumor model P388 Leukemia (intraperitoneal) in CD2F1 (CDF1) mice. Conditions: endpoint: median survival time, higher = longer survival. Summed up: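 Mice carrying the transplanted tumor received test compound or vehicle. Survival was recorded in each group, and the value is the treated-group measurement divided by that of the vehicle-treated control group.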

[1] abbreviates: dose: 50.0 mg/kg/injection, schedule: Q01DX005 (ip), vehicle: saline with Tween-80.
Where [2] appears, read: dose: 100.0 mg/kg/injection, schedule: Q01DX005 (ip), vehicle: saline with Tween-80.
Setting [3] is: dose: 200.0 mg/kg/injection, schedule: Q01DX005 (ip), vehicle: saline with Tween-80.
Setting [4] is: dose: 25.0 mg/kg/injection, schedule: Q01DX009 (ip), vehicle: other.
The mark [5] stands for this setting: dose: 50.0 mg/kg/injection, schedule: Q01DX009 (ip), vehicle: other.
The mark [6] stands for this setting: dose: 50.0 mg/kg/injection, schedule: Q01DX009 (ip), vehicle: distilled water + Tween-80.
The mark [7] stands for this setting: dose: 50.0 mg/kg/injection, schedule: Q01DX009 (ip), vehicle: saline with Tween-80.
Where [8] appears, read: dose: 50.0 mg/kg/injection, schedule: Q01DX009 (ip), vehicle: saline.
Where [9] appears, read: dose: 100.0 mg/kg/injection, schedule: Q01DX009 (ip), vehicle: saline.
Setting [10] is: dose: 50.0 mg/kg/injection, schedule: Q01DX005 (ip), vehicle: saline.
The mark [11] stands for this setting: dose: 100.0 mg/kg/injection, schedule: Q01DX005 (ip), vehicle: saline.

The text below walks through data of PubChem BioAssay AID330 (DTP/NCI, 2004).

Toxic doses and inconclusive results are not listed.

Regarding `Cc1ccc(CCNC(=O)c2c3nc4c(C(=O)NCCc5ccc(C)cc5)ccc(Br)c4oc-3c(Br)c(=O)c2N)cc1`, the T/C was 93 % of control under setting [1], 86 % of control under setting [2] and 106 % of control under setting [3].
Take `C[Si](C)(CNCCN)O[Si](C)(C)CNCCN`: the T/C was 99 % of control (dose: 60.0 mg/kg/injection, schedule: Q01DX005 (ip), vehicle: saline); 90 % of control (dose: 120.0 mg/kg/injection, schedule: Q01DX005 (ip), vehicle: saline); 101 % of control (dose: 240.0 mg/kg/injection, schedule: Q01DX005 (ip), vehicle: saline).
Regarding `O=c1oc(-c2cccc(I)c2)ns1`, the T/C runs as follows: (dose: 100.0 mg/kg/injection, schedule: Q01DX009 (ip), vehicle: Klucel (hydroxypropylcellulose) (HPC)) 111 % of control; (dose: 200.0 mg/kg/injection, schedule: Q01DX009 (ip), vehicle: Klucel (hydroxypropylcellulose) (HPC)) 114 % of control.
Turning to `COc1ccccc1N(CCCO)C(=S)Nc1ccccc1`, the T/C is, setting by setting: under setting [4], 105 % of control; under setting [5], 110 % of control; (dose: 100.0 mg/kg/injection, schedule: Q01DX009 (ip), vehicle: other) 122 % of control; (dose: 200.0 mg/kg/injection, schedule: Q01DX009 (ip), vehicle: other) 111 % of control; (dose: 400.0 mg/kg/injection, schedule: Q01DX009 (ip), vehicle: other) 111 % of control.
For `COC(=O)C(C(=O)OC)=C1C(=O)OCC1(C)C`, the T/C is, setting by setting: (dose: 100.0 mg/kg/injection, schedule: Q04DX003 (ip), vehicle: saline) 101 % of control; (dose: 200.0 mg/kg/injection, schedule: Q04DX003 (ip), vehicle: saline) 100 % of control; (dose: 400.0 mg/kg/injection, schedule: Q04DX003 (ip), vehicle: saline) 100 % of control.
For `CNC(=O)CCC(NS(=O)(=O)c1ccc(NC(C)=O)cc1)C(=O)O` (stereo unspecified), the T/C by setting is: (dose: 100.0 mg/kg/injection, schedule: Q01DX001 (ip), vehicle: Klucel (hydroxypropylcellulose) (HPC)) 105 % of control; (dose: 200.0 mg/kg/injection, schedule: Q01DX001 (ip), vehicle: Klucel (hydroxypropylcellulose) (HPC)) 98 % of control; (dose: 400.0 mg/kg/injection, schedule: Q01DX001 (ip), vehicle: Klucel (hydroxypropylcellulose) (HPC)) 100 % of control.
Consider `CNC(=O)OCc1c(COC(=O)NC)c(-c2ccc(C(F)(F)F)cc2)n(C)c1C`, for which the T/C was 123 % of control (dose: 3.13 mg/kg/injection, schedule: Q01DX009 (ip), vehicle: distilled water + Tween-80) and 115 % of control under setting [6].
For `N#Cc1ccc(NN=NCCOCCCl)cc1`, the T/C was 97 % of control (dose: 6.25 mg/kg/injection, schedule: Q01DX009 (ip), vehicle: distilled water + Tween-80); 107 % of control (dose: 12.5 mg/kg/injection, schedule: Q01DX009 (ip), vehicle: distilled water + Tween-80); 104 % of control (dose: 25.0 mg/kg/injection, schedule: Q01DX009 (ip), vehicle: distilled water + Tween-80); 103 % of control under setting [6]; 104 % of control (dose: 100.0 mg/kg/injection, schedule: Q01DX009 (ip), vehicle: distilled water + Tween-80).
As for `NC(N)=NCCCC(N=C1C=CC(=NC(CCCN=C(N)N)C(=O)O)C=C1)C(=O)O` (stereo unspecified), the T/C (dose: 50.0 mg/kg/injection, schedule: Q04DX002 (ip), vehicle: distilled water + alcohol) is 99 % of control; the T/C (dose: 100.0 mg/kg/injection, schedule: Q04DX002 (ip), vehicle: distilled water + alcohol) is 101 % of control; the T/C (dose: 200.0 mg/kg/injection, schedule: Q04DX002 (ip), vehicle: distilled water + alcohol) is 104 % of control; the T/C (dose: 400.0 mg/kg/injection, schedule: Q04DX002 (ip), vehicle: distilled water + alcohol) is 107 % of control; the T/C (dose: 600.0 mg/kg/injection, schedule: Q04DX002 (ip), vehicle: distilled water + alcohol) is 108 % of control.
Regarding `CCc1cccc2c(NCCCCCCNc3c4ccccc4nc4c(CC)cccc34)c3ccccc3nc12`, the T/C is 113 % of control (dose: 0.63 mg/kg/injection, schedule: Q01DX009 (ip), vehicle: other); 109 % of control (dose: 1.25 mg/kg/injection, schedule: Q01DX009 (ip), vehicle: other); 112 % of control (dose: 2.5 mg/kg/injection, schedule: Q01DX009 (ip), vehicle: other); 105 % of control (dose: 3.75 mg/kg/injection, schedule: Q01DX009 (ip), vehicle: other); 110 % of control (dose: 5.0 mg/kg/injection, schedule: Q01DX009 (ip), vehicle: other); 114 % of control (dose: 7.5 mg/kg/injection, schedule: Q01DX009 (ip), vehicle: other). In addition, the T/C (dose: 15.0 mg/kg/injection, schedule: Q01DX009 (ip), vehicle: other) was 96 % of control.
Regarding `Cc1ccc(S(=O)(=O)N=S(C)C)cc1`, the T/C reads like this: (dose: 6.25 mg/kg/injection, schedule: Q01DX009 (ip), vehicle: other) 117 % of control; (dose: 12.5 mg/kg/injection, schedule: Q01DX009 (ip), vehicle: other) 107 % of control; under setting [4], 113 % of control; under setting [5], 118 % of control; under setting [7], 100 % of control; (dose: 100.0 mg/kg/injection, schedule: Q01DX009 (ip), vehicle: saline with Tween-80) 106 % of control. Also, the T/C was 111 % of control (dose: 200.0 mg/kg/injection, schedule: Q01DX009 (ip), vehicle: saline with Tween-80) and 116 % of control (dose: 400.0 mg/kg/injection, schedule: Q01DX009 (ip), vehicle: saline with Tween-80).
On to `COC(=O)C(S)(NC(C)=O)C(C)C` (stereo unspecified), for which the T/C is, setting by setting: under setting [8], 102 % of control; under setting [9], 98 % of control; (dose: 200.0 mg/kg/injection, schedule: Q01DX009 (ip), vehicle: saline) 104 % of control.
On to `COC(=O)C1CC(C)N1C(C)C` (stereo unspecified), for which the T/C under setting [10] is 95 % of control; the T/C under setting [11] is 97 % of control; the T/C (dose: 200.0 mg/kg/injection, schedule: Q01DX005 (ip), vehicle: saline) was 100 % of control.
Regarding `Cn1cnc([N+](=O)[O-])c1[Se]c1nc(N)nc2c1ncn2C1OC(CO)C(O)C1O` (stereo unspecified), the T/C is 116 % of control (dose: 2.0 mg/kg/injection, schedule: Q01DX009 (ip), vehicle: distilled water + Tween-80); 121 % of control (dose: 4.0 mg/kg/injection, schedule: Q01DX009 (ip), vehicle: distilled water + Tween-80); 160 % of control (dose: 32.0 mg/kg/injection, schedule: Q01DX009 (ip), vehicle: distilled water + Tween-80); 175 % of control (dose: 32.0 mg/kg/injection, schedule: Q01DX009 (ip), vehicle: water); 100 % of control (dose: 64.0 mg/kg/injection, schedule: Q01DX009 (ip), vehicle: water).
As for `COCC(=O)c1ccccc1-c1ccccc1`, the T/C under setting [1] was 100 % of control, the T/C under setting [2] was 103 % of control and the T/C under setting [3] was 110 % of control.
As for `COc1ccc(/C=N/NC(=O)c2ccc(Cl)cc2Cl)cc1OC`, the T/C (dose: 60.0 mg/kg/injection, schedule: Q01DX005 (ip), vehicle: saline with Tween-80) is 96 % of control; the T/C (dose: 120.0 mg/kg/injection, schedule: Q01DX005 (ip), vehicle: saline with Tween-80) was 96 % of control; the T/C (dose: 240.0 mg/kg/injection, schedule: Q01DX005 (ip), vehicle: saline with Tween-80) was 92 % of control.
`CCC(/C=N/N=C(N)N)=N\N=C(N)N`: the T/C runs as follows: under setting [10], 110 % of control; under setting [11], 100 % of control.
`S=C(Nc1ccc(Cl)cc1)SSC(Cl)(Cl)Cl`: the T/C runs as follows: (dose: 12.5 mg/kg/injection, schedule: Q01DX009 (ip), vehicle: saline with Tween-80) 91 % of control; (dose: 25.0 mg/kg/injection, schedule: Q01DX009 (ip), vehicle: saline with Tween-80) 100 % of control; (dose: 50.0 mg/kg/injection, schedule: Q01DX009 (ip), vehicle: saline + alcohol) 112 % of control; under setting [7], 115 % of control.
For `Cc1cc(C)n(-c2nnc(-n3nc(C)cc3C)c3ccccc23)n1`, the T/C under setting [8] was 94 % of control and the T/C under setting [9] is 87 % of control.
